Test system: finishing Nelore cattle in feedlot
Assay: Animal performance trial: Crina Ruminants and Ronozyme Rumistar for finishing Nelore cattle in feedlot
Format: in vivo
Experimental: The study has been carried out at facilities of Animal Science Department at ESALQ/USP (University of São Paulo), Piracicaba-SP, Brazil. Treatments have been allocated in fifty pens, with 6 animals per pen. Water has been supplied for ad libitum consumption and feed once a day. Cattle have been withheld from feed and water for 16 hours before body weight (BW) assessment at the beginning and at the end of the experiment. After 28 and 56 days body weight (BW) has been assessed to monitor the partial average daily gain. [table] [table]

## CC[C@@]1([C@@H]2O[C@@H]([C@H]3O[C@@](O)(CO)[C@H](C)C[C@@H]3C)C[C@@H]2C)CC[C@H]([C@]2(C)CC[C@]3(C[C@H](O)[C@@H](C)[C@@H]([C@@H](C)[C@@H](OC)[C@H](C)C(=O)O)O3)O2)O1 [MONENSIN, Monensin]
After 59 days
  ADG (average daily gain): 1.342b kg/d
  DMI (dry matter intake): 8.63b kg/d
  FE (feed efficiency), ADG:DMI: 0.155b
Adaptation period - 28 days
  ADG (average daily gain): 1.352b kg/d
  DMI (dry matter intake): 7.73b kg/d
  FE (feed efficiency), ADG:DMI: 0.177bc
